From patent EP1017810B1, “AGONIST AND ANTAGONIST PEPTIDES OF CARCINOEMBRYONIC ANTIGEN (CEA)” (THE GOVERNMENT OF THE UNITED STATES OF AMERICA, as …, priority 1997, dated 2004)
Where no end group is shown, it is not given here.

Each compound was assayed on CEA CTL T-Vac8 (assay: initial screening cytotoxicity assay, 111In release from peptide-incubated C1R-A2 cells with T-Vac8 CTL). Conditions: peptide at 1, 0.1 and 0.01 µg/ml, E:T=1.45:1, 4 hours.
Assay type: cell-based, human

Row | Compound | activation of T-Vac8 cytotoxicity (lysis of peptide-incubated targets)
1 | CC(C)C[C@H](NC(=O)[C@H](CC(N)=O)NC(=O)[C@H](CC(C)C)NC(=O)[C@H](CC(=O)O)NC(=O)[C@H](C)NC(=O)CNC(=O)[C@H](CO)NC(=O)[C@H](CC(C)C)NC(=O)[C@@H](N)Cc1ccc(O)cc1)C(=O)O [CAP1-6D] | equal to or better than CAP1
2 | CC[C@H](C)[C@H](NC(=O)[C@H](CC(N)=O)NC(=O)[C@H](C)NC(=O)CNC(=O)[C@H](CO)NC(=O)[C@H](CC(C)C)NC(=O)[C@@H](N)Cc1ccc(O)cc1)C(=O)N[C@@H](CC(N)=O)C(=O)N[C@@H](CC(C)C)C(=O)O [CAP1-7I] | appeared to be active
3 | YLSGINLNL [CAP1-5I] | provided stimulation, albeit at reduced levels compared to CAP1 itself
4 | YLSGFNLNL [CAP1-5F] | provided stimulation, albeit at reduced levels compared to CAP1 itself
5 | YLSGACLNL [CAP1-6C] | equal to or better than CAP1
6 | YLSGSNLNL [CAP1-5S] | provided stimulation, albeit at reduced levels compared to CAP1 itself
